Series [1] concerns VSV/HIVLuc infection of HeLa HRLuc cells.
Series [2] deals with HIV-1 RF infection of CEM-SS cells. The series is described as follows: HIV-1 RF cell protection assay (XTT dye reduction), antiviral activity. The format is cell-based. The conditions noted are these: for HIV-1 RF Cell Protection Assay TI (therapeutic index, CC50/EC50): CC50 divided by EC50, cell protection assay; for EC50: read-out: HIV-1 RF Cell Protection Assay EC50. Background: Tetrazolium dyes change colour on reduction, which living cells bring about.

Series [3] has as its system VSV/HIVLuc infection of HeLa HRLuc cells. The series is described as follows: microbe, parasite or virus in culture. Conditions: Vesicular stomatitis virus, 72 h, read-out: Dual Reporter Assay EC50.
The nature of series [4]: HIV-1 RF cell protection assay (XTT dye reduction), cytotoxicity in uninfected cells. The format is cell-based. The conditions noted are these: human. Here is the method:
(§1) The antiviral activities of compounds were also evaluated in cell protection assays by the XTT dye reduction method. CEM-SS subject cells were infected with HIV-1 RF virus at an moi of 0.025 to 0.819 or mock infected with medium only and added at 2×10^4 cells per well into 96-well plates containing half-log dilutions of test compounds. Six days later, 50 μl of XTT (1 mg/ml XTT tetrazolium, […] phenazine methosulfate) was added to the wells and the plate was reincubated for four hours. Viability, as determined by the amount of XTT formazan produced, was quantified spectrophotometrically by absorbance at 450 nm.
(§2) Data from cell protection assays were expressed as the percent of formazan produced in compound-treated cells compared to formazan produced in wells of uninfected, compound-free cells.

Series [5] can be described thus: in vitro. Conditions: human.
Series [6] concerns HeLa HRLuc cells. The conditions noted are these: read-out: Dual Reporter Assay CC50; Renilla luciferase reporter in infected HeLa HRLuc cells, ~72 hours; mean of 2 to 3 experiments.
For series [7], the system named is CEM-SS cells. The series is described as follows: HIV-1 RF cell protection assay (XTT dye reduction), cytotoxicity in uninfected cells. The format is cell-based. The conditions noted are these: XTT dye reduction, uninfected CEM-SS cells, six days; mean of 2 to 3 experiments. Here is the method: as §1, §2
Setting [8] is: Human immunodeficiency virus 1, 144 h, XTT dye reduction six days after infection of CEM-SS cells with HIV-1 RF, mean of 2 to 3 experiments.
Where [9] appears, read: uninfected (mock-infected) CEM-SS cells, XTT dye reduction, uninfected CEM-SS cells, six days, mean of 2 to 3 experiments, read-out: HIV-1 RF Cell Protection Assay CC50.
The mark [10] stands for this setting: XTT dye reduction, uninfected CEM-SS cells, six days, mean of 2 to 3 experiments, read-out: HIV-1 RF Cell Protection Assay CC50.

Read-outs that look alike come from different tables or passages of the source. Some results are limits rather than exact numbers.

One may read the EC50 as the concentration that produces a half-maximal response.

As for `Cc1cn([C@H]2C[C@H](N=[N+]=[N-])[C@@H](CO)O2)c(=O)[nH]c1=O` [AZT, 3′-Azido-3′-deoxythymidine], the “Dual Reporter Assay TI (therapeutic index, CC50/EC50)” value in series [1] is listed as >11,034. For the same compound, in series [2], the “HIV-1 RF Cell Protection Assay TI (therapeutic index, CC50/EC50)” value is >40,000. Also, the EC50 in series [2] (setting [8]) is 0.008 µM; in series [3], 0.029 µM. The CC50 at 6 days in series [4] (setting [9]) is > 320 µM. Moreover, the CC50 in series [5] was > 320 µM.

Consider `CC(C)c1nc(COC(N)=O)n(Cc2ccncc2)c1Sc1cc(Cl)cc(Cl)c1` [CPV, Capravirine], for which the “Dual Reporter Assay TI (therapeutic index, CC50/EC50)” value in series [1] is 24,266. The “HIV-1 RF Cell Protection Assay TI (therapeutic index, CC50/EC50)” value in series [2] is 47,214. The EC50 worked out at 0.0014 µM in series [2] (setting [8]) and 0.0015 µM in series [3]. In addition, the CC50 at 6 days in series [4] (setting [10]) was determined as 66.1 µM. Moreover, the CC50 in series [5] amounted to 36.4 µM.

Turning to `Nc1ccn([C@@H]2CS[C@H](CO)O2)c(=O)n1` [Compound 3TC, lamivudine], the “Dual Reporter Assay TI (therapeutic index, CC50/EC50)” value in series [1] was >229. The “HIV-1 RF Cell Protection Assay TI (therapeutic index, CC50/EC50)” value in series [2] is >15,384. The EC50 in series [2] (setting [8]) came to 0.065 µM; in series [3], 0.14 µM. In addition, in series [4], the CC50 at 6 days was > 1000 µM. Further, the CC50 in series [5] was > 32 µM.

As for `O=C(O)C(=O)CC(=O)c1cccn1Cc1ccc(F)cc1` [Compound L-731988], the “Dual Reporter Assay TI (therapeutic index, CC50/EC50)” value in series [1] was found to be 92.2. Further, the EC50 stood at 1.8 µM in series [1] (read-out: Dual Reporter Assay EC50) and 4.5 µM in series [2] (XTT dye reduction six days after infection of CEM-SS cells with HIV-1 RF, mean of 2 to 3 experiments). For the same compound, the “HIV-1 RF Cell Protection Assay TI (therapeutic index, CC50/EC50)” value in series [2] is 55.6. The CC50 in series [6] came to 166 µM; in series [7] it was 250 µM.

In the case of `CC(C)Nc1cccnc1N1CCN(C(=O)c2cc3cc(NS(C)(=O)=O)ccc3[nH]2)CC1` [DLV, delavirdine], in series [1], the “Dual Reporter Assay TI (therapeutic index, CC50/EC50)” value was >5000. Also, the “HIV-1 RF Cell Protection Assay TI (therapeutic index, CC50/EC50)” value in series [2] was 6,961. Also, the EC50 was 0.013 µM in series [2] (setting [8]) and 0.02 µM in series [3]. In addition, the CC50 at 6 days in series [4] (setting [10]) turned out to be 90.5 µM. The CC50 in series [5] is > 100 µM.

On to `O=C1Nc2ccc(Cl)cc2[C@@](C#CC2CC2)(C(F)(F)F)O1` [EFV, efavirenz], for which the “Dual Reporter Assay TI (therapeutic index, CC50/EC50)” value in series [1] is on record as 179,250. Besides, in series [2], the “HIV-1 RF Cell Protection Assay TI (therapeutic index, CC50/EC50)” value is given as 38,266. Further, the EC50 worked out at 0.0015 µM in series [2] (setting [8]) and 0.0004 µM in series [3]. For the same compound, in series [4] (setting [10]), the CC50 at 6 days was determined as 57.4 µM. This compound also had a CC50 in series [5] of 71.7 µM.

`Cc1ccnc2c1NC(=O)c1cccnc1N2C1CC1` [NVP, Nevirapine]: in series [1], the “Dual Reporter Assay TI (therapeutic index, CC50/EC50)” value is >1032. Further, the “HIV-1 RF Cell Protection Assay TI (therapeutic index, CC50/EC50)” value in series [2] is reported as >30,303. For the same compound, the figures for the EC50 in series [2] (setting [8]) and in series [3] were 0.033 µM and 0.031 µM, respectively. Moreover, the CC50 at 6 days in series [4] (setting [10]) was > 1000 µM. Moreover, the CC50 in series [5] is > 32 µM.

Consider `Cc1cn([C@H]2C=C[C@@H](CO)O2)c(=O)[nH]c1=O` [d4T, stavudine], for which, in series [1], the “Dual Reporter Assay TI (therapeutic index, CC50/EC50)” value is given as >119. In addition, the “HIV-1 RF Cell Protection Assay TI (therapeutic index, CC50/EC50)” value in series [2] is recorded as >64. In addition, the values for the half-maximal effective concentration (EC50) in series [2] (setting [8]) and in series [3] were 0.51 µM and 0.27 µM, respectively. Also, the CC50 at 6 days in series [4] (setting [10]) was > 32 µM. For the same compound, the CC50 in series [5] is > 32 µM.

For the compound `O=c1[nH]cnc2c1ncn2[C@H]1CC[C@@H](CO)O1` [ddl, didanosine], the EC50 in series [2] (Human immunodeficiency virus 1, CEM-SS, 144 h) stood at 12.9 µM; in series [3] it was 0.59 µM. Also, in series [4] (setting [9]), the CC50 at 6 days was > 32 µM. In addition, the CC50 in series [5] is > 32 µM.
